Test results taken from patent US11197859B2 (AUTIFONY THERAPEUTICS LIMITED, priority 2010, dated 2021).
Like-named read-outs stand apart in the source and are kept apart here.

Test: Blood concentrations in satellite animals of the electroshock seizure study
Type: in vivo
Conditions: CD, whole blood, po, rat, 2 hours after dosing
Method: Testing involved determining the threshold for tonic hindlimb extensor seizures using a Hugo Sachs Electronik stimulator which delivers a constant current of 0.3 second duration, 50 Hz, sinewave form, fully adjustable between 1 and 300 mA. Stimuli were delivered via corneal electrodes (Stean T O, Atkins A R, Heidbreder C A, Quinn L P, Trail B K, Upton N. (2005) Br J Pharmacol. 144(5):628-35). Seizure threshold was determined using the ‘up and down’ method of Kimball et al. (1957)(Kimball A W, Burnett W T Jr, Doherty D G. (1957) Radiat Res. 7(1):1-12). The first animal tested in each group was stimulated with a current that might be expected to be close to the threshold for induction of a seizure. If a tonic seizure was not induced, then the next animal in the group received a stimulus 5 mA higher. If a tonic seizure was induced, then the next animal received a stimulus 5 mA lower. This is repeated for all animals within the control (vehicle) group. In the case of groups treated with a test compound steps of 5 to 10 mA were used. At the end of the study, blood samples were taken for analysis of the drug concentrations in this compartment (n=4/group).
All doses were calculated as base. Sodium valproate was suspended in Methocell 1% (w/v) and dosed via the oral (p.o.) route at 5 mL/kg 1 hour before test. Reference Example RE1 was dissolved in DMSO and then suspended in Methocell 1% (w/v) to a final DMSO concentration of 5% (v/v). Reference Example RE1 was then dosed p.o. at 5 mL/kg 2 hours before test.
Blood concentrations of Reference Example RE1 measured in satellite animals 2 hours after dosing were 5.3 and 9.1 μg/mL following the doses of 30 and 60 mg/kg p.o., respectively. These concentrations are equivalent to unbound concentrations in blood of 1.3 and 2.2 μM, respectively, and thus are consistent with concentrations of Reference Example RE1 that produce a significant increase in Kv3-mediated currents observed in the in vitro recombinant human Kv3 electrophysiology assay, described above.

## CC[C@H]1NC(=O)N(c2ccc(Oc3ccc(C)c(OC)c3)nc2)C1=O [RE1, (5R)-5-ethyl-3-(6-{[4-methyl-3-(methyloxy)phenyl]oxy}-3-pyridinyl)-2,4-imidazolidinedione]
30 mg/kg p.o., read-out: blood concentration
  concentration at 2 h: 5300 ng/mL
30 mg/kg p.o., read-out: unbound concentration in blood
  concentration at 2 h: 1300 nM
60 mg/kg p.o., read-out: blood concentration
  concentration at 2 h: 9100 ng/mL
60 mg/kg p.o., read-out: unbound concentration in blood
  concentration at 2 h: 2200 nM
